Measurements as given in patent publication US20250073235A1, “INHIBITION OF MAST CELL TUMOR NECROSIS FACTOR FOR THERAPEUTIC USE” (The University of Southern Mississippi, priority 2023, published 2025).
“Also recorded” adds a separate entry of the source.

B1: sTNFR1: soluble TNF receptor 1 (Genscript), sequesters secreted TNF (protein, UniProt P19438 30-211, looked up)
extracellular domain: LVPHLGDREKRDSVCPQGKYIHPQNNSICCTKCHKGTYLYNDCPGPGQDTDCRECESGSFTASENHLRHCLSCSKCRKEMGQVEISSCTVDRDTVCGCRKNQYRHYWSENLFQCFNCSLCLNGTVHLSCQEKQNTVCTCHAGFFLRENECVSCSNCKKSLECTKLCLPQIENVKGTEDSGTT
modifications: extracellular domain

Experiments:
RBL-2H3 cells [1] = assay: total TNF protein level (ELISA), IgE/TNP-BSA activated mast cells; assay type: cell-based, rat; conditions: for total TNF level, normalized against DMSO: FIG. 19; for overall level of TNF (total TNF protein): 1 hour
Description: (§1) Sub-confluent RBL-2H3 cells (85%) grown on a 6-well plate were sensitized with 0.5 μg/ml anti-TNP IgE (BD Biosciences) and activated by 25 ng/ml TNP^(26)-BSA (Santa-Cruz) in RPMI 1640 (Corning) containing 0.1% BSA as described. The supernatant (around 1 ml) was collected from resting (no exposure to IgE) and activated (IgE and TNP-BSA) cells respectively and centrifuged at 500 g for 5 min at 4° C. to clear any cell debris. In the meantime, the cells attached to the bottom of the 6-well plates were lysed in 1 ml of cell culture medium, RPMI 1640 containing 0.1% BSA and 0.5% Triton X-100 for 5 min at RT. The lysate was centrifuged at 15,000 g for 5 min at 4° C. to clear any Triton-insoluble biomass. The cleared supernatant or lysate was separated into 3 aliquots: 800 μl were lyophilized for TNF assay; 50 μl were stored at −20° C. for serotonin and histamine assays; and the rest was used immediately for β-hexosaminidase assay.
(§2) β-hexosaminidase activity and TNF protein level were measured as commonly used in the art. To quantify histamine with an Enzyme Immunoassay (EIA) kit (EA213/96; Eagle Biosciences), the supernatant and cell lysates were diluted 100-fold in RPMI. Fifty μl of the diluted samples were then subject to acylation reaction and ELISA by following the manufacturer's instructions. To measure the level of serotonin, the supernatant and cell lysates were diluted 1:625 fold with standard buffer (EA630/96; Eagle Biosciences), 20 μl of which were subject to acylation and subsequent ELISA according to the manufacturer's instructions.
RBL-2H3 cells and derivatives growing in 6-well plates were sensitized for 3 h with 0.5 μg/mL mouse anti-TNP ([…]) IgE (BD Pharmingen) and stimulated with 25 ng/mL of TNP(26)-BSA (Santa Cruz). β-hexosaminidase activities and TNF levels in the supernatant and the cell lysates were quantified as previously described. […]. Reverse transcription and PCRs RBL-2H3 cells (˜40% confluent) cultured in a 24-well plate were treated with 250 μL of 0.25% Trypsin-EDTA (Gibco) that was subsequently neutralized with 750 μL of complete medium. About […] were collected for RT-qPCR (quantitative PCR) using TaqMan Gene Expression Cells-to-CT Kit (ThermoFisher Scientific) according to the manufacturer's instructions. Fluorescently labeled, target-specific probes ((3-actin: Rn00667869_ml; TNFR1: Rn01492348_ml; and TNFR2: Rn00709830_ml) were purchased from Thermofisher Scientific. The Cq values of TNFRs were standardized against that of β-actin utilizing the Bio-Rad CFX Maestro software and then the relative levels of mRNA expression were determined. For electrophoresis, TNFR1 was amplified from cDNA (prepared with the same TaqMan Gene Expression Cells-to-CT Kit described earlier) using […]-3′ (SEQ ID NO: 11) and 5′-[…]-3′ (SEQ ID NO: 12) as forward and reverse primers, whereas TNFR2 was amplified using 5′-[…]-3′ (SEQ ID NO: 13) and 5′-[…]-3′ (SEQ ID NO: 14) as forward and reverse primers. PCR was conducted in a 20 μL mixture containing 1× One Taq Master Mix (NEB) and 200 nM of primers. Where specified, 1 μL of rat universal cDNA (BioChain) was used as positive control.

RBL-2H3 cells [2] = assay: TNF secretion assay (ELISA), IgE/TNP-BSA activated mast cells; assay type: cell-based, rat; conditions: for TNF secretion (% of total TNF in the supernatant), normalized against DMSO: inhibitor added to sensitized RBL-2H3 cells 30 min before TNP-BSA, FIG. 19
Description: as §1, §2
(§3) The absolute value for the exocytosis of each mediator (V) was expressed as the percentage of the signal released into the supernatant (MS) relative to the total signal in the supernatant and in the lysate [V=MS/(MS+ML)%]. The value for IgE/allergen-dependent exocytosis was calculated by subtracting the value of the activated samples with the value of the resting samples (VE=VA−VR).
(§4) RBL-2H3 cells and derivatives growing in 6-well plates were sensitized for 3 h with 0.5 μg/mL mouse anti-TNP ([…]) IgE (BD Pharmingen) and stimulated with 25 ng/mL of TNP(26)-BSA (Santa Cruz). β-hexosaminidase activities and TNF levels in the supernatant and the cell lysates were quantified as previously described. […]. Reverse transcription and PCRs RBL-2H3 cells (˜40% confluent) cultured in a 24-well plate were treated with 250 μL of 0.25% Trypsin-EDTA (Gibco) that was subsequently neutralized with 750 μL of complete medium. About […] were collected for RT-qPCR (quantitative PCR) using TaqMan Gene Expression Cells-to-CT Kit (ThermoFisher Scientific) according to the manufacturer's instructions. […]

RBL-2H3 cells [3] = assay: β-hexosaminidase secretion assay, IgE/TNP-BSA activated mast cells; assay type: cell-based, rat; conditions: for β-hexosaminidase secretion (% of total activity in the supernatant), normalized against DMSO: inhibitor added to sensitized RBL-2H3 cells 30 min before TNP-BSA, FIG. 19
Description: as §1, §2, §3, §4

activated mast cells [4] = conditions: reference [31]; cited from earlier work
activated mast cells [5] = conditions: reference [31]; cited from earlier work; remark: listed apart in the source
[6] = inhibitor added to sensitized RBL-2H3 cells 30 min before TNP-BSA

| Molecule | total TNF level, normalized against DMSO (RBL-2H3 cells [1]; [6]) | TNF secretion (% of total TNF in the supernatant), normalized against DMSO (RBL-2H3 cells [2]) | β-hexosaminidase secretion (% of total activity in the supernatant), normalized against DMSO (RBL-2H3 cells [3]) | further results |
| --- | --- | --- | --- | --- |
| CCOc1cc(C(=O)N2CCC(N3CCN(C)CC3)CC2)ccc1Nc1ncc2c(n1)N(S(C)(=O)=O)c1ccccc1C(=O)N2C [AX-15836] |  |  |  | reduction in total TNF level (RBL-2H3 cells [1]; inhibitor added to sensitized RBL-2H3 cells 30 min before TNP-BSA, statistically significant, FIG. 19B): 10% |
| Cc1ccc(-n2nc(C(C)(C)C)cc2NC(=O)Nc2ccc(OCCN3CCOCC3)c3ccccc23)cc1 [Doramapimod/BIRB 796, Doramapimod] | did not seem to affect exocytosis or significantly reduce TNF proliferation | did not seem to affect exocytosis | did not seem to affect exocytosis |  |
| Cc1cc(NC(=O)c2cccc(NC(=O)/C=C/CN(C)C)c2)ccc1Nc1nccc(-c2cccnc2)n1 [JNK-IN-8] | diminished TNF level drastically | without impacting | without impacting |  |
| CC#CCOc1ccc(S(=O)(=O)CC(c2ccc(CNS(C)(=O)=O)cc2)N(O)C=O)cc1 (centres unmarked) [KP-457] |  |  |  | overall level of TNF (total TNF protein) (RBL-2H3 cells [1]; allergen-triggered RBL-2H3 cells, inhibitor added along with TNP-BSA, FIG. 18C): inhibited the overall level of TNF; also recorded: TNF production is diminished; amount of sTNF protein released into the supernatant (RBL-2H3 cells [2]; sensitized RBL-2H3 cells, inhibitor added along with TNP-BSA, concentrations between 0.3 M and 10 μM, 1 hour, FIG. 18B): significantly reduced; exocytosis of β-hexosaminidase (RBL-2H3 cells [3]; sensitized RBL-2H3 cells, inhibitor added along with TNP-BSA, concentrations between 0.3 M and 10 μM, 1 hour, FIG. 18A): did not seem to affect |
| Cn1nccc1Nc1nccc(-c2ccn([C@H](CO)c3ccc(Cl)c(F)c3)c(=O)c2)n1 [Ravoxertinib/GDC-0994, Ravoxertinib] | inhibited | inhibited | inhibited |  |
| CN(C)CCC=C1c2ccccc2CCc2ccccc21 [amitriptyline] |  |  |  | serotonin release (activated mast cells [4]): without any influence; histamine release (activated mast cells [5]): specifically inhibit |
| B1 |  |  |  | overall level of TNF (total TNF protein) (RBL-2H3 cells [1]; sensitized RBL-2H3 cells incubated with sTNFR1 along with TNP-BSA, FIG. 17A): inhibited the overall level of TNF in a concentration dependent fashion; overall level of TNF (total TNF protein) (RBL-2H3 cells [1]; sensitized RBL-2H3 cells incubated with sTNFR1 along with TNP-BSA, FIG. 17A, listed as soluble TNFR1): inhibits antigen-elicited TNF production in a dosage-dependent fashion |
